The target of this assay is Rho-associated protein kinase 2 (Homo sapiens, UniProt O75116). The assay is described as follows: Inhibition of ROCK2 (unknown origin) using STK2 substrate after 4 hrs by HTRF mode.
Sequence of Rho-associated protein kinase 2 (O75116 whole entry): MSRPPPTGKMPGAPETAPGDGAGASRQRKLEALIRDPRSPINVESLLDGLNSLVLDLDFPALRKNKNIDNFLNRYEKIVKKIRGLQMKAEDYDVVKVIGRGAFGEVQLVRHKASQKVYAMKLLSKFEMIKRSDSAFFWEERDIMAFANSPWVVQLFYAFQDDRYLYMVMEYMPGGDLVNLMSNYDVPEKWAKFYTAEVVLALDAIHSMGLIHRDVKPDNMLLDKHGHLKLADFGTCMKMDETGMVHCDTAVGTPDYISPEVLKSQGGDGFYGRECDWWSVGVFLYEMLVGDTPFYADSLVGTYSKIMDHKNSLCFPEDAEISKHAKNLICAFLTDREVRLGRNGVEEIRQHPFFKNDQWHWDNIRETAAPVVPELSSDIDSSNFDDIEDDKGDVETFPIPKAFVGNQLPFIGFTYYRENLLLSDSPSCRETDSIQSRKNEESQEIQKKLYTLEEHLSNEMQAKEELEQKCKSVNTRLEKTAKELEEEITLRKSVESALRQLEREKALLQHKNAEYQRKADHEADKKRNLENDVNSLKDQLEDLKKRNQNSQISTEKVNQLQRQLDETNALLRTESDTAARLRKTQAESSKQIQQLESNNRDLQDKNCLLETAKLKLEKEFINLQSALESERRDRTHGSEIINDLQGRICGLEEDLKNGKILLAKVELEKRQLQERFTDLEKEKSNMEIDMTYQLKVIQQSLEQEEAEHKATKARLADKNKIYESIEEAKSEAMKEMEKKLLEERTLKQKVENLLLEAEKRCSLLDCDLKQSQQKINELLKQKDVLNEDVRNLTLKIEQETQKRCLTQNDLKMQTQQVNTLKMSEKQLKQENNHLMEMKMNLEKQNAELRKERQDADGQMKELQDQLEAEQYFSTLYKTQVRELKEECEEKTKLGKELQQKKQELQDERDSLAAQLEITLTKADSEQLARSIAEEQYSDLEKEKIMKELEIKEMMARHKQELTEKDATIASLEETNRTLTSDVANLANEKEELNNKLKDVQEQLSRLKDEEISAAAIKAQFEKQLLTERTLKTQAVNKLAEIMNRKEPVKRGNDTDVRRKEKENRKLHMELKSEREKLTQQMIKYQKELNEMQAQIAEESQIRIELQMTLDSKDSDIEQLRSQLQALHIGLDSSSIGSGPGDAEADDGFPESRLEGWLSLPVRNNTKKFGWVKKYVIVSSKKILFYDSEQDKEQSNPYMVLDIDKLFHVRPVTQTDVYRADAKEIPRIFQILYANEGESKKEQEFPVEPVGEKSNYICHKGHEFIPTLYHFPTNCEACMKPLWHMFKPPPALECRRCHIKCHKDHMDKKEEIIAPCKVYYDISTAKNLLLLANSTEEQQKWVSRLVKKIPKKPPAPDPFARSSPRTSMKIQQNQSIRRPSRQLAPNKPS

In general, IC50 refers to the concentration at which inhibition is half-maximal. A lower IC50 goes with greater potency in that assay. The compound `CNC(=O)N(CCO)c1ccc(-c2cn[nH]c2)cc1` registered an IC50 of 0.751 µM. In other words, the sub-micromolar range.

For the origin of these results see BindingDB's records for doi:10.1016/j.bmc.2015.03.047 (Shanghai Institute of Technology, 2015).
